Assay results reported in ChEMBL document CHEMBL1152001 (Bioorg Med Chem Lett, 1993).
Non-standard residues stand in square brackets, D forms with d. Residues, ends and D or L forms follow the SMILES beside them. pGlu = O=C1CC[C@@H](C(=O)O)N1

These compounds were tested against Substance-P receptor (Rattus norvegicus, UniProt P14600) (assay: Tested for inhibition of tachykinin 1 (NK1) receptor in rat brain synaptosomal membranes using [125I]BH-SP as radioligand).
Assay type: cell membranes, Membrane

Sequence of Substance-P receptor (P14600 whole entry): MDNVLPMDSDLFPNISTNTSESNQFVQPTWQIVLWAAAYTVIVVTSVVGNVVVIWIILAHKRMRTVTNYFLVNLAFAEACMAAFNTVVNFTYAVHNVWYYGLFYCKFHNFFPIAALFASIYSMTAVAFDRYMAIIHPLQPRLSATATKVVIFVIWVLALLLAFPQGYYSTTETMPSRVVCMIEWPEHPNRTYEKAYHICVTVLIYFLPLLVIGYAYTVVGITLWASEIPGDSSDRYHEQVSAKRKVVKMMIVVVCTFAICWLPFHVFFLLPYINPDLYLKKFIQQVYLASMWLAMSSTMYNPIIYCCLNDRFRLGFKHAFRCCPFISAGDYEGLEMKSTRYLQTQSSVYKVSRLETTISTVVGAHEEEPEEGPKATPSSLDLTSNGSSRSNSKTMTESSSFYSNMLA

| IC50 [nM] | SMILES |
| --- | --- |
| 31 | CC[C@H](C)[C@H](NC(=O)[C@H](Cc1ccccc1)NC(=O)[C@H](C)NC(=O)[C@H](CC(=O)O)NC(=O)[C@H](CCCCN)NC(=O)[C@H](CO)NC(=O)[C@@H]1CCCN1C(=O)[C@@H]1CCC(=O)N1)C(=O)NCC(=O)N[C@@H](CC(C)C)C(=O)N[C@@H](CCSC)C(N)=O ([pGlu]PSKDAFIGLM-NH2) |
| 75 | CSCC[C@H](NC(=O)[C@H](CC(C)C)NC(=O)CNC(=O)[C@@H](NC(=O)[C@H](Cc1ccccc1)NC(=O)[C@H](CCC(N)=O)NC(=O)[C@H](CC(=O)O)NC(=O)[C@H](CO)NC(=O)[C@H](CCCCN)NC(=O)[C@@H]1CCCN1C(=O)[C@@H](NC(=O)[C@@H](N)CC(=O)O)C(C)C)C(C)C)C(N)=O [KASSININ] |
| 2.3 | CSCC[C@H](NC(=O)[C@H](CC(C)C)NC(=O)CNC(=O)[C@H](Cc1ccc(O)cc1)NC(=O)[C@H](Cc1ccccc1)NC(=O)[C@H](CCCCN)NC(=O)[C@H](CC(N)=O)NC(=O)[C@@H]1CCCN1C(=O)[C@H](CC(=O)O)NC(=O)[C@H](C)NC(=O)[C@@H]1CCC(=O)N1)C(N)=O ([pGlu]ADPNKFYGLM-NH2) |
| 870 | CSCC[C@H](NC(=O)[C@H](CC(C)C)NC(=O)CNC(=O)[C@@H](NC(=O)[C@H](Cc1ccccc1)NC(=O)[C@H](Cc1ccccc1)NC(=O)[C@H](CC(=O)O)NC(=O)[C@H](Cc1c[nH]cn1)NC(=O)[C@H](CCSC)NC(=O)[C@@H](N)CC(=O)O)C(C)C)C(N)=O [NEUROKININ B] |
